Measurements published in patent US11912699B2, “Tau-protein targeting compounds and associated” (Arvinas Operations, Inc., priority 2019, dated 2024).
Where a name gives a salt, the structure may show the parent alone.

molecular target: T1, Tau P301L (Homo sapiens, UniProt P10636, P618L); test: In vitro tau degradation assay in CHOK1 Tau P301L cells (sarkosyl insoluble tau, WES); format: cell-based; conditions: CHO-K1; remaining tau protein in sarkosyl insoluble pellet; CHOK1 Tau P301L cells treated 48 hours with test compound at 1 μM, doxycycline removed for the last 24 hours; relative to DMSO doxycycline control; read-out: Tau Protein Degradation effect at 1 μM
T1 construct: expressed in transfected cells
T1 sequence (P10636 1-441 isoform P10636-8 P301L): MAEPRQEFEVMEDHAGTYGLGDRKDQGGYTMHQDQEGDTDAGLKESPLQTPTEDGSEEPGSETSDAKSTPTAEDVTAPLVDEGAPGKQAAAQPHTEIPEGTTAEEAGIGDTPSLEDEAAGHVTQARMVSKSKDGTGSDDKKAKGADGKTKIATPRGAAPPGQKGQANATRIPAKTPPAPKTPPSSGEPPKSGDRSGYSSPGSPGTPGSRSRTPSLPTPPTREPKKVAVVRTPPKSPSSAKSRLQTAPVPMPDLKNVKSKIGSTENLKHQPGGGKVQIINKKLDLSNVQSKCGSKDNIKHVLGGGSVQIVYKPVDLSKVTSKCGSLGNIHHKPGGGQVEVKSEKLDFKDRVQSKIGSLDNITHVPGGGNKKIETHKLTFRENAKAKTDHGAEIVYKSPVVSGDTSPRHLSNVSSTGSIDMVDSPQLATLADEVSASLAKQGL
Procedure: Exemplary bifunctional molecules of the present disclosure are represented by the structures in Table 1, which includes associated data. In vitro tau protein degradation data in CHOK1 Tau P301L cells, as described below, is reported based on the remaining tau protein in the sarkosyl insoluble pellet following treatment of cells for 48 hours with test compound at the 1 μM concentration where the last 24 hours doxycycline was removed. The data are represented relative to DMSO doxycycline control: • A ≤50% of tau protein remaining (>50% of tau protein degraded) • B >50% of tau protein remaining ([…] of tau protein degraded)
Data for compounds in Table 1 was generated using in vitro tau Degradation Assay protocol as described in Methods for FIGS. 2A and 2B below.
FIGS. 2A and 2B. (2A) Tau expression was induced by addition (+) of doxycycline (1 μg/ml) to ChoK1-Tau P301L clone D1.
In vitro tau Degradation Assay for FIGS. 2A and 2B. T-Rex CHOK1 cells are maintained in Ham's F-12 Nutrient Mix (ThermoFisher) plus 10% Fetal Bovine Serum Tetracycline Negative (Corning) with 10 ug/mL Blasticidin S HCl (Gibco) and 200 ug/mL Zeocin (100 mg/mL, Invitrogen). A stable clone expressing Tau P301L in the presence of doxycycline (1 μg/ml), clone D1 was selected. Compounds were diluted to indicated concentrations and used to treat cells for the indicated times. Cells were harvested from either 96, 24, 6, or 10 cm dishes coated with Poly-D-Lysine (Corning) in ice cold PBS or Buffer H+HALT Protease and phosphatase inhibitors (Thermofisher). Sarkosyl Insoluble tau was isolated as described in Eckermann et al. and Greenberg and Davies, accordingly. WES™ capillary electrophoresis analysis was performed on the Sarkosyl Insoluble tau fraction using Tau1 antibody (Milipore) unless otherwise indicated, as specified in the manufacturers specification (ProteinSimple).

Row | SMILES | remaining activity at 1 µM [%]
1 | Cc1ncsc1-c1ccc([C@H](C)NC(=O)[C@@H]2C[C@@H](O)CN2C(=O)[C@H](c2cc(OCCN3CCC(O[C@H]4C[C@H](Oc5ccc(-c6ccc7c8cnccc8n(C)c7c6)cn5)C4)CC3)no2)C(C)C)cc1 [Compound 399, (2S,4R)-4-hydroxy-1-((S)-3-methyl-2-(3-(2-(4-((1r,3S)-3-((5-(5-methyl-5H-pyrido[4,3-b]indol-7-yl)pyridin-2-yl)oxy)cyclobutoxy)piperidin-1-yl)ethoxy)isoxazol-5-yl)butanoyl)-N-((S)-1-(4-(4-methylthiazol-5-yl)phenyl)ethyl) pyrrolidine-2-carboxamide] | > 50
2 | Cn1c2ccncc2c2ccc(-c3ccc(OCCOCCOCCOc4ccc5c(c4)C(=O)N(C4CCC(=O)NC4=O)C5=O)nc3)nc21 (stereo not shown) [Compound 419, 2-(2,6-dioxopiperidin-3-yl)-5-(2-(2-(2-((5-(9-methyl-9H-pyrrolo[2,3-b:4,5-c′]dipyridin-2-yl)pyridin-2-yl)oxy)ethoxy)ethoxy)ethoxy)isoindoline-1,3-dione] | > 50
3 | CC(C)N(CCCCOc1ccc2c(c1)C(=O)N(C1CCC(=O)NC1=O)C2=O)[C@H]1CC[C@H](O[C@H]2C[C@H](Oc3ccc(-c4ccc5c6cnccc6n(C)c5c4)cn3)C2)CC1 (stereo partly drawn) [Compound 436, 2-(2,6-dioxopiperidin-3-yl)-5-(4-(isopropyl((1R,4r)-4-((1r,3R)-3-((5-(5-methyl-5H-pyrido[4,3-b]indol-7-yl)pyridin-2-yl)oxy)cyclobutoxy)cyclohexyl)amino)butoxy)isoindoline-1,3-dione] | < 50
4 | CN(C)c1ccn2cc(-c3ccc(OCCOCCOCCOc4ccc5c(c4)C(=O)N(C4CCC(=O)NC4=O)C5=O)cc3)nc2c1 (stereo not shown) [Compound 440, 5-(2-(2-(2-(4-(7-(dimethylamino)imidazo [1,2-a]pyridin-2-yl)phenoxy)ethoxy)ethoxy)ethoxy)-2-(2,6-dioxopiperidin-3-yl)isoindoline-1,3-dione] | > 50
5 | O=C1CCC(N2C(=O)c3ccc(OCCCCCN4CCC(OC5CN(c6ncc(-c7ccc8c9cnccc9n(C(F)F)c8c7)cc6C(F)(F)F)C5)CC4)cc3C2=O)C(=O)N1 (stereo not shown) [Compound 442, 5-[5-[14-[1-[5-[5-(Difluoromethyl)pyrido[4,3-b]indol-7-yl]-3-(trifluoromethyl)-2-pyridyl]azetidin-3-yl]oxy-1-piperidyl]pentoxy]-2-(2,6-dioxo-3-piperidyl)isoindoline-1,3-dione formate] | < 50
6 | O=C1CCC(N2C(=O)c3ccc(OCCCCCN4CCC(OC5CN(c6ccc(-c7ccn8c(n7)nc7ccccc78)cn6)C5)CC4)cc3C2=O)C(=O)N1 (stereo not shown) [Compound 450, 2-(2,6-dioxo-3-piperidyl)-5-[5-[4-[1-(5-pyrimido[1,2-a]benzimidazol-2-yl-2-pyridyl)azetidin-3-yl]oxy-1-piperidyl]pentoxy]isoindoline-1,3-dione formate] | < 50
7 | O=C1CCC(N2C(=O)c3ccc(OCCN4CC5(C4)CN(C[C@H]4C[C@H](OC6CCN(c7ccn8c(n7)nc7ccccc78)CC6)C4)C5)cc3C2=O)C(=O)N1 (stereo partly shown) [Compound 460, 5-(2-(6-(((1r,3r)-3-((1-(benzo[4,5]imidazo[1,2-a]pyrimidin-2-yl)piperidin-4-yl)oxy)cyclobutyl)methyl)-2,6-diazaspiro[3.3]heptan-2-yl)ethoxy)-2-(2,6-dioxopiperidin-3-yl)isoindoline-1,3-dione] | > 50

Second part, the molecule after the results:

Row | remaining activity at 1 µM [%] | SMILES
8 | < 50 | O=C1CCC(N2C(=O)c3ccc(N4CCN(CCC5CCN(c6ccc(-c7ccc8c(c7)[nH]c7ccncc78)cn6)CC5)CC4)cc3C2=O)C(=O)N1 (stereo not shown) [Compound 400, 2-(2,6-dioxopiperidin-3-yl)-5-(4-[2-[1-(5-[5H-pyrido[4,3-b]indol-7-yl]pyridin-2-yl)piperidin-4-yl]ethyl]piperazin-1-yl)isoindole-1,3-dione]
9 | < 50 | Cn1c2ccncc2c2ccc(-c3ccc(O[C@H]4C[C@H](N(C)C5CC6(C5)CN(CCC5CCN(c7ccc8c(c7)C(=O)N(C7CCC(=O)NC7=O)C8=O)CC5)C6)C4)nc3)cc21 (stereo partly shown) [Compound 401, 2-(2,6-dioxopiperidin-3-yl)-5-(4-(2-(6-(methyl((1r,3r)-3-((5-(5-methyl-5H-pyrido[4,3-b]indol-7-yl)pyridin-2-yl)oxy)cyclobutyl)amino)-2-azaspiro[3.3]heptan-2-yl)ethyl)piperidin-1-yl) isoindoline-1,3-dione]
10 | < 50 | Cn1c2ccncc2c2ccc(-c3ccc(N4CC(OC5CCN(CCOc6ccc7c(c6)C(=O)N(C6CCC(=O)NC6=O)C7=O)CC5)C4)nc3)cc21 (stereo not shown) [Compound 416, 2-(2,6-dioxopiperidin-3-yl)-5-[2-(4-[[1-(5-[5-methylpyrido[4,3-b]indol-7-yl]pyridin-2-yl)azetidin-3-yl]oxy]piperidin-1-yl)ethoxy]isoindole-1,3-dione]
11 | > 50 | Cn1c2ccncc2c2ccc(-c3ccc(OC4CN(C5CCN(CCCCCOc6ccc7c(c6)C(=O)N(C6CCC(=O)NC6=O)C7=O)CC5)C4)nc3)cc21 (stereo not shown) [Compound 424, 2-(2,6-dioxopiperidin-3-yl)-5-((5-(4-(3-((5-(5-methyl-5H-pyrido[4,3-b]indol-7-yl)pyridin-2-yl)oxy)azetidin-1-yl)piperidin-1-yl)pentyl)oxy) isoindoline-1,3-dione]
12 | > 50 | O=C1CCC(N2C(=O)c3ccc(OCCOCCOCCN4CCC(c5ccc6c(c5)[nH]c5ccncc56)CC4)cc3C2=O)C(=O)N1 (stereo not shown) [Compound 431]
13 | > 50 | Cn1c2ccncc2c2ccc(-c3ccc(N4CC(C(=O)N5CCN(CCCCCOc6ccc7c(c6)C(=O)N(C6CCC(=O)NC6=O)C7=O)CC5)C4)nc3)cc21 (stereo not shown) [Compound 446, 2-(2,6-dioxopiperidin-3-yl)-5-((5-(4-(1-(5-(5-methyl-5H-pyrido[4,3-b]indol-7-yl)pyridin-2-yl)azetidine-3-carbonyl)piperazin-1-yl)pentyl)oxy) isoindoline-1,3-dione]
14 | < 50 | Cc1cnc(Nc2ccc3cnccc3c2)cc1N1CCC(CCN2CCN(c3ccc4c(c3)C(=O)N(C3CCC(=O)NC3=O)C4=O)CC2)CC1 (stereo not shown) [Compound 447, 2-(2,6-dioxopiperidin-3-yl)-5-(4-(2-(1-(2-(isoquinolin-6-ylamino)-5-methylpyridin-4-yl)piperidin-4-yl)ethyl)piperazin-1-yl)isoindoline-1,3-dione]
15 | < 50 | N#Cc1cc(-c2ccc3c4cnccc4n(C(F)F)c3c2)cnc1N1CCC(CCN2CCN(c3ccc4c(c3)C(=O)N(C3CCC(=O)NC3=O)C4=O)CC2)CC1 (stereo not shown) [Compound 454, 5-(5-(difluoromethyl)-5H-pyrido[4,3-b]indol-7-yl)-2-(4-(2-(4-(2-(2,6-dioxopiperidin-3-yl)-1,3-dioxoisoindolin-5-yl)piperazin-1-yl)ethyl)piperidin-1-yl)nicotinonitrile]
16 | > 50 | Cn1c2ccncc2c2ccc(-c3ccc(OC4CC5(C4)CN(C(=O)CN4CCN(CC6CN(c7ccc8c(c7)C(=O)N(C7CCC(=O)NC7=O)C8=O)C6)CC4)C5)nc3)cc21 (stereo not shown) [Compound 458, 2-(2,6-dioxopiperidin-3-yl)-5-(3-((4-(2-(6-((5-(5-methyl-5H-pyrido[4,3-b]indol-7-yl)pyridin-2-yl)oxy)-2-azaspiro [3.3]heptan-2-yl)-2-oxoethyl)piperazin-1-yl)methyl)azetidin-1-yl)isoindoline-1,3-dione]
